The target of data set [1] is T1, hPXR (Homo sapiens, UniProt O75469).
T1 sequence (O75469 1-434): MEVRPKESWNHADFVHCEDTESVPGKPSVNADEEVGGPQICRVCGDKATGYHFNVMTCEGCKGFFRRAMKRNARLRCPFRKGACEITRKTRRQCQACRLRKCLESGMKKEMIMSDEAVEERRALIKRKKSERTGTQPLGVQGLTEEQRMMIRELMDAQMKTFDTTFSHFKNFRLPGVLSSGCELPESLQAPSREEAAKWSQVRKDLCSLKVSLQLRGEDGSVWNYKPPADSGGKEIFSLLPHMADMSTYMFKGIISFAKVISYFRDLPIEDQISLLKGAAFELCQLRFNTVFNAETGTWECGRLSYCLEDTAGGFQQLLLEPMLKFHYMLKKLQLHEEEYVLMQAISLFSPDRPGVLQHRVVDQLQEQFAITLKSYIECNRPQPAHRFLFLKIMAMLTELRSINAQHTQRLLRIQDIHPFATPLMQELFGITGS
The data set is described as follows: Cotransfection assay, pSG5-hPXR ATG with (IR6)3-tk-CAT reporter in CV-1 cells. As to conditions: for activation of hPXR (CAT activity): 1 μM lovastatin, 100 μM phenobarbital, 10 μM of the other compounds. As to the method:
(§1) Cells were treated with 1 μM mevastatin or lovastatin, 100 μM phenobarbital, or 10 μM of the other compounds. Cell extracts were subsequently assayed for CAT activity. […] (FIG. 4C) CARLA was performed with bacterially-expressed GST-hPXR or GST-mPXR1 and [^35S]SRC1.14 synthesized in vitro. […] [^35S]SRC1.14 complexed with GST-hPXR (top panel) or GST-mPXR1 (bottom panel) was precipitated with glutathione-sepharose beads.
(§2) CV-1 cells were plated in 24-well plates in DME medium supplemented with 10% charcoal-stripped fetal calf serum at a density of 1.2×10^5 cells per well. […] Cells were transfected overnight by lipofection using Lipofectamine (Life Technologies, Inc.), according to the manufacturer's instructions. The medium was changed to DME medium supplemented with 10% delipidated calf serum (Sigma) and cells were incubated for an additional 24 hours.
To determine, whether hPXR could regulate transcription through the IR6 motif, a reporter plasmid was generated containing three copies of the CYP3A4 IR6 response element upstream of the tk promoter and CAT gene.
It was next determined whether hPXR might mediate the effects of some or all of these compounds on CYP3A4 expression. CV-1 cells were cotransfected with the pSG5-hPXR ATG expression plasmid and the (IR6)3-tk-CAT reporter plasmid, and the cells were treated with micromolar concentrations of a number of compounds that are known to induce CYP3A gene expression in humans and/or rodents.

The target in a further data set is T2, Biotin-His6-PXR/RXRα (Homo sapiens, UniProt O75469).
T2 sequence (O75469 with tags, fused parts or gaps): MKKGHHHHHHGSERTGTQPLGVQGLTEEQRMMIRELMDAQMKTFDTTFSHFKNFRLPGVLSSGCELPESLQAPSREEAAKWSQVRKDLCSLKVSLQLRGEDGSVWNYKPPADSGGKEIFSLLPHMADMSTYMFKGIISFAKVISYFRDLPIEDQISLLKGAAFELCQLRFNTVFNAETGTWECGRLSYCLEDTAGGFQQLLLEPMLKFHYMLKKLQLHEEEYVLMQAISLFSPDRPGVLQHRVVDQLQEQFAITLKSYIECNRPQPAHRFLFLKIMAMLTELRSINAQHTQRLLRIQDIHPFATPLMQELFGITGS
T2 sequence (P19793 with tags, fused parts or gaps partner limits assumed): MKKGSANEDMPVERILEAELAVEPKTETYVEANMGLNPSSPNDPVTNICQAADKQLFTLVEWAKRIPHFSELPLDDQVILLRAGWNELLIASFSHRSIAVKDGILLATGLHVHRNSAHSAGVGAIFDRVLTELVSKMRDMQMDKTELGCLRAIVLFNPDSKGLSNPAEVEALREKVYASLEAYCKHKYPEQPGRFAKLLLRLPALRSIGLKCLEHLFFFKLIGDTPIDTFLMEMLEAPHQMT
Put plainly: biochemical.

The test system of another data set is CYP3A1 levels. To be noted: cited from earlier work.
Data set [2] concerns the target T3, GST-mPXR1 (Mus musculus, UniProt O54915).
T3 construct: The LBDs of hPXR and mPXR1 were expressed in E. coli as fusion proteins with glutathione-S-transferase (GST); made in house; host or cells: E. coli
As to conditions: Kliewer et al, Cell 92:73-82 (1998); cited from earlier work.

A further data set concerns CYP3A4 gene expression. As to conditions: cited from earlier work.
The next data set deals with mPXR1 (Mus musculus, UniProt O54915). As to conditions: CV-1 cells, (IR6)3-tk-CAT reporter; 10 μM.
For data set [3], the target named is T3, GST-mPXR1. Put plainly: Coactivator-receptor ligand assay (CARLA), GST-mPXR1 with [35S]SRC1.14. As to conditions: 10 μM. In kind it is binding. The method, then:
as §1
GST-hPXR fusion protein was expressed in BL21(DE3)plysS cells and bacterial extracts prepared by one cycle of freeze-thaw of the cells in Protein Lysis. Buffer containing 10 mM Tris, pH 8.0, 50 mM KCl, 10 mM DTT, and 1% NP-40 followed by centrifugation at 40,000×g for 30 minutes. Glycerol was added to the resulting supernatant to a final concentration of 10%. Lysates were stored at −80° C. [^35S]SRC1.14 was generated using the TNT rabbit reticulocyte system (Promega) in the presence of Pro-Mix (Amersham). Coprecipitation reactions included 25 μl of lysate containing GST-hPXR fusion protein, 25 μl Incubation Buffer (50 mM KCl, 40 mM HEPES pH 7.5, 5 mM β-mercaptoethanol, 1% Tween-20, 1% non-fat dry milk), 5 μl […], and vehicle (1% DMSO) or compounds as indicated. […]

The target in data set [4] is T1, hPXR. As to conditions: CV-1 cells; 10 μM. As to the method:
FIGS. 1A-1D. […] Cell extracts were subsequently assayed for CAT activity.
as §2

These results are taken from patent US8221991B2, “Orphan nuclear receptor” (priority 1998, dated 2012).

One may read the IC50 as the concentration that gives 50% inhibition. A high value points to a need for much substance.

Entries after “also recorded” stand apart in the source; their conditions may differ.

T3 sequence (O54915 143-430 limits assumed): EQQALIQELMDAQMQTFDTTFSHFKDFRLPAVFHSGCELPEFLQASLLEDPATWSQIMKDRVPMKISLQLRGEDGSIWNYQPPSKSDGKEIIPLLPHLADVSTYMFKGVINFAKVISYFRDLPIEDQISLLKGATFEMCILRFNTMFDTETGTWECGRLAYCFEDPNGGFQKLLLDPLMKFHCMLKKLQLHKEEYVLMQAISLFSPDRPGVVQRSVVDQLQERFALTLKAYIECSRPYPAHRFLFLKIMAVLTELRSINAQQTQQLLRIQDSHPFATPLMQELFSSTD
T3 sequence (Q15788 whole entry partner, the tested form may be a part): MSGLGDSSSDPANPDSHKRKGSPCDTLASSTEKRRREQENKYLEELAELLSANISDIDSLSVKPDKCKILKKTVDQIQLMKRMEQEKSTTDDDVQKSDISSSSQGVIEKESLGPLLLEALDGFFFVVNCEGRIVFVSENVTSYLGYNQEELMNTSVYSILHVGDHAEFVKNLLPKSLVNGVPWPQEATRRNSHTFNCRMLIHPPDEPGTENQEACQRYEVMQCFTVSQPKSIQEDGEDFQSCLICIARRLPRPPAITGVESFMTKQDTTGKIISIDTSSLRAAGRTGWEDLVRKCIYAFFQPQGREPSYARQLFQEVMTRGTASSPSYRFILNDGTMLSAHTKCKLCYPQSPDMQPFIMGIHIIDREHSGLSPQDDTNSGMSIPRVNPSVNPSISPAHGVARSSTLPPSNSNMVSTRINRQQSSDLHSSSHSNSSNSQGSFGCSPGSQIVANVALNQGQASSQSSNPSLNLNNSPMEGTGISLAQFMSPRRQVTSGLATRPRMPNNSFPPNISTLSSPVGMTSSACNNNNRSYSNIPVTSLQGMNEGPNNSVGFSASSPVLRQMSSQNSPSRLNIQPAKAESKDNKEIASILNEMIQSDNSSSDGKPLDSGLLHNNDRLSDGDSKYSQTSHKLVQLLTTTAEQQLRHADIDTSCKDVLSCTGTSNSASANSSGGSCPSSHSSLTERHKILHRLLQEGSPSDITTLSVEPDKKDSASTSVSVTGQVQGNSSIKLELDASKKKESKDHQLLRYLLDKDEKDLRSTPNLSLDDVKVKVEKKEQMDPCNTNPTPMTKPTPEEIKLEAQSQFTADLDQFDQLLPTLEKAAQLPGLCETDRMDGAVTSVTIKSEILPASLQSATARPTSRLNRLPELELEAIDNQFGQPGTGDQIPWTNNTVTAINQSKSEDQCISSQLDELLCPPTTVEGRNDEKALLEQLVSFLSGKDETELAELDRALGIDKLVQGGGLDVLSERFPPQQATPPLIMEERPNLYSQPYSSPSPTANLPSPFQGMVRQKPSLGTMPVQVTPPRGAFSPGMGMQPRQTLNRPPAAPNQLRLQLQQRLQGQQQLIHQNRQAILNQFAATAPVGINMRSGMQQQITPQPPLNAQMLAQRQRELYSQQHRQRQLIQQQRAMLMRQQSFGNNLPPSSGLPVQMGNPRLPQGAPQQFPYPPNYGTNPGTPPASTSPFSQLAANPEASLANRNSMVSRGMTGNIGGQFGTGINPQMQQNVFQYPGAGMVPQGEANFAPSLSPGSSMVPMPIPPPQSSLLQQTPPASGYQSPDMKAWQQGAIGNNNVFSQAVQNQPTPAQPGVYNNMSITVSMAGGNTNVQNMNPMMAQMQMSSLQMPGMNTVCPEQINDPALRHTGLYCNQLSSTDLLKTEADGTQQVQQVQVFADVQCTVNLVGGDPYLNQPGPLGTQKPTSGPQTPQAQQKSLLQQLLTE
Chain of mPXR1 (O54915 whole entry): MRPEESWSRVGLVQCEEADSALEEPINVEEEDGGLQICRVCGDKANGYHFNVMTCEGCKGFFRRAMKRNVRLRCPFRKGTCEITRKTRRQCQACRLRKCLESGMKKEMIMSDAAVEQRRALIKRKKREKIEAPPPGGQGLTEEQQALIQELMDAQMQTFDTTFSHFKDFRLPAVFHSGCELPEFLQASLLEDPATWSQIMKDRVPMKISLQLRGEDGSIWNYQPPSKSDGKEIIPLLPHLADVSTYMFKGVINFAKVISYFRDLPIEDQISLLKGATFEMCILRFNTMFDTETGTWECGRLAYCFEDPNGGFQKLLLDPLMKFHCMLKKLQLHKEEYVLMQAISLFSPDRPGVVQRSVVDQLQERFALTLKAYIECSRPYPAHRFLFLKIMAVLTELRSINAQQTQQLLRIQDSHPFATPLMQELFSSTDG
Experimental for Biotin-His6-PXR/RXRα: Test compounds were dissolved in DMSO at 10 mM and diluted 1:10 in DMSO before serially diluting in assay buffer. […] Streptavidin-PVT SPA beads (AmershamPharmacia cat 4 RPNQ0007) were resuspended in assay buffer (50 mM Tris HCl pH 8.0, 50 mM KCl, 1 mM DTT, 0.1 mg/ml essentially fatty acid free bovine serum albumin) at 0.5 mg/ml. Biotin-His6-PXR/RXRα was added to the beads to a final concentration of 50 nM. The receptors were allowed to couple to the SPA beads for thirty minutes at room temperature. The uncoupled receptor was removed by centrifuging the SPA beads at 3000 rpm for 5 minutes in a swinging bucket rotor of a Rupp & Bowman Silencer centrifuge. The receptor coated SPA beads were then resuspended in assay buffer to 3.3 mg/ml. […] The total volume in each well was 100 μL. […] The plates were then allowed to incubate at room temperature until equilibrium was obtained, approximately 1.5 hours. The plates were then counted on a TopCount liquid scintillation counter (Packard) using a protocol optimized for ^3H PVT SPA and programmed to correct for color quenching.

Consider `CC(=O)[C@H]1CC[C@H]2[C@@H]3CC[C@@H]4CC(=O)CC[C@]4(C)[C@H]3CC[C@]12C` [5 β-pregnane-3,20-dione], for which the “fold activation of hPXR” value on hPXR [1] (10 μM) is given as “roughly 4 fold”. The compound also showed an IC50 against Biotin-His6-PXR/RXRα of 1000 nM.

As to `CC(=O)[C@H]1[C@H](C#N)C[C@H]2[C@@H]3CC=C4C[C@@H](O)CC[C@]4(C)[C@H]3CC[C@@]21C` [PCN], the “effect on CYP3A1 / CYP3A levels in rat hepatocytes” value in the data set on CYP3A1 levels is “marked effects”. In addition, the “interaction of the mPXR1 LBD with SRC1.14” value on GST-mPXR1 [2] was “promote the interaction”. In addition, at hPXR [1], the “activation of hPXR (CAT activity)” value is listed as “activated”. For the same compound, the “induction of CYP3A4 gene expression / CYP3A levels in human hepatocytes” value with CYP3A4 gene expression is on record as “only modest effects”. For the same compound, the “fold activation of mPXR1” value at mPXR1 is recorded as “roughly 9 fold”.

For the compound `Clc1ccccc1C(c1ccccc1)(c1ccccc1)n1ccnc1` [clotrimazole], the “interaction between GST-mPXR1 and [35S]SRC1.14” value at GST-mPXR1 [3] was “did not”. Moreover, on Biotin-His6-PXR/RXRα, half-maximal inhibition (IC50) was put at 1300 nM.

As for `C[C@@H]1C[C@H]2[C@@H]3CCC4=CC(=O)C=C[C@]4(C)[C@@]3(F)[C@@H](O)C[C@]2(C)[C@@]1(O)C(=O)COC(=O)CC(C)(C)C` [dexamethasone-t-butylacetate], at hPXR [4], the “activation of hPXR (CAT activity), CYP3A1 DR3 PXRE reporter” value is reported as “activated efficiently”. The “activation of hPXR (CAT activity)” value is recorded as “induced reporter levels; also recorded: activated” on hPXR [1] and “most efficacious activators” at hPXR [1] (listed as Dexamethasone-t-butylacetate).

`CC[C@H](C)C(=O)O[C@H]1C[C@@H](C)C=C2C=C[C@H](C)[C@H](CC[C@@H]3C[C@@H](O)CC(=O)O3)[C@H]21` [lovastatin]: the “activation of hPXR (CAT activity)” value at hPXR [1] is “activated; also recorded: more efficacious activators of hPXR than mPXR1”.

For `CCC1(c2ccccc2)C(=O)NC(=O)NC1=O` [phenobarbital], the “activation of hPXR (CAT activity)” value on hPXR [1] is reported as “activated; also recorded: more efficacious activators of hPXR than mPXR1”.

Regarding `ClC1=C(Cl)[C@]2(Cl)[C@H]3[C@H]([C@H](Cl)C(Cl)[C@@H]3Cl)[C@@]1(Cl)C2(Cl)Cl` (stereo partly drawn) [transnonachlor], at hPXR [1], the “activation of hPXR (CAT activity)” value was “activated”.
